Patent publication US8486891B2, “Nasal calcitonin formulations containing chlorobutanol” (Par Pharmaceutical, Inc., priority 2003, dated 2013)
Each block holds one molecule with its values, some of them ahead of it.

How the values were obtained:
[1] = test system: rat trachea; test: Inhibition of ciliary beating frequency of rat trachea; type: cell-based
Excerpt: The prior art teaches away from the use of chlorobutanol stating that at 0.6% concentration, the chlorobutanol caused more than 50% inhibition of ciliary beating frequency of rat trachea.

[2] = ingredient as supplied (EP grade); cited from earlier work
[3] = healthy volunteers, decongestant nasal spray containing the preservative; cited from earlier work
[4] = test system: respiratory mucosal tissue; settings: in vitro exposure; Berg et al. 1994; cited from earlier work
[5] = test system: frog palate; settings: ex vivo frog palate; Braga et al. 1992; cited from earlier work

effect on ciliary beating frequency of rat trachea ([1]; chlorobutanol concentration less than 0.4%): greatly reduced
effect on ciliary beating frequency of rat trachea ([1]; chlorobutanol concentration of around 0.25%): totally eliminated
Molecule: CC(C)(O)C(Cl)(Cl)Cl [chlorobutanol]

Molecule: Salmon Calcitonin [Salmon Calcitonin, EP]
Potency [2]: Potency of 6236 IU/mg

Molecule: benzalkonium chloride
effect on rhinitis [3]: aggravate rhinitis
morphological effect on respiratory mucosal tissue [4]: severe morphological alterations
mucocilary transport velocity [5]: significant slowing
